According to paper PMC12064818, “A general assay platform to study protein pharmacology using ligand-dependent structural dynamics” (Nature Communications, 2025):
pEC50: −log10 of the molar value. Where a name gives a salt, the structure may show the parent alone. Read-outs that look alike come from different tables or passages of the source.

Columns and labels:
PKA = details: cited from earlier work
[1] = biological target: T1, ABL1-N-HiBiT kinase domain (Homo sapiens, UniProt P00519); experiment: SDR assay, ABL1-N-HiBiT; details: for ABL1 SDR pSDR50: heatmap data, 128 kinase inhibitors; for pEC50: read-out: SDR Ave SDR50
T1 sequence (P00519 233-500): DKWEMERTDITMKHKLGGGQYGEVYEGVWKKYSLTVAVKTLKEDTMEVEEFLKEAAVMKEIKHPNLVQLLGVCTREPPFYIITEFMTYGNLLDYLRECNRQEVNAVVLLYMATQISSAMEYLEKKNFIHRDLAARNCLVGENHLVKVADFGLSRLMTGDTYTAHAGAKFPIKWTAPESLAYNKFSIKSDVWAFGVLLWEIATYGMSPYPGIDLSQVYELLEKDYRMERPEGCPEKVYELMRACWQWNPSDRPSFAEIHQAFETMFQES

PKA-N-HiBiT = PKA-N-HiBiT (Homo sapiens, UniProt P17612); experiment: SDR assay, PKA-N-HiBiT
[2] = annotation yes/no for kinase library compound, source not given
[3] = ABL1-N-HiBiT qHTS, average maximal SDR response
[4] = PKA-N-HiBiT qHTS, SDR assay, average maximal response
[5] = ABL1-N-HiBiT qHTS, SDR assay, average maximal response
[6] = ABL1-N-HiBiT qHTS, SDR assay, average
[7] = ABL1-N-HiBiT qHTS, average, unit inferred
[8] = read-out: PKA SDR Ave SDR50, PKA-N-HiBiT qHTS, SDR assay, average

## CN1CCN([C@H]2CC[C@H](n3cc(-c4ccc(Oc5ccccc5)cc4)c4c(N)ncnc43)CC2)CC1 [A-419259]
PKA; [2]
  Annotated PKA activity: no
[1]; [3]
  SDR Ave Max Response: 100.16
PKA-N-HiBiT; [4]
  SDR Ave Max Response: -12.03

## COc1ccc2c(Oc3ccc(NC(=O)c4c(C)n(CC(C)(C)O)n(-c5ccccc5)c4=O)nc3)ccnc2c1 [AMG-458]
PKA; [2]
  Annotated PKA activity: yes
[1]; [3]
  SDR Ave Max Response: 38.29
PKA-N-HiBiT
  pEC50: 4.97
  SDR Ave Max Response: -17.61
PKA-N-HiBiT; read-out: PKA SDR Ave SDR50
  pEC50: 4.97

## COc1ccc(CNC(=O)Nc2ncc([N+](=O)[O-])s2)cc1 [AR-A014418]
PKA; [2]
  Annotated PKA activity: no
[1]; [3]
  SDR Ave Max Response: -7.75
PKA-N-HiBiT; [4]
  SDR Ave Max Response: -0.25

## Cc1sc2c(c1C)C(c1ccc(Cl)cc1)=N[C@@H](CC(=O)Nc1ccc(OCCOCCOCCOCCNc3cccc4c3C(=O)N(C3CCC(=O)NC3=O)C4=O)cc1)c1nnc(C)n1-2 (stereo partly shown) [ARV-825]
PKA; [2]
  Annotated PKA activity: no
[1]; [5]
  SDR Ave Max Response: 5.73
PKA-N-HiBiT; [4]
  SDR Ave Max Response: 3.65

## O=C(NC1CCNCC1)c1n[nH]cc1NC(=O)c1c(Cl)cccc1Cl [AT-7519]
PKA; [2]
  Annotated PKA activity: no
[1]; [3]
  SDR Ave Max Response: 9.60
PKA-N-HiBiT; [4]
  SDR Ave Max Response: -18.47

## NC1(C(=O)N[C@@H](CCO)c2ccc(Cl)cc2)CCN(c2nc[nH]c3nccc2-3)CC1 [AZD-5363]
PKA; [2]
  Annotated PKA activity: yes
[1]; [3]
  SDR Ave Max Response: -4.45
PKA-N-HiBiT; [4]
  SDR Ave Max Response: 63.28

## CCn1nc(C2CCN(C(=O)CCO)CC2)nc1-c1cnc(N)c(-c2nnc(C(C)(C)C)o2)n1 [AZD-8835]
PKA; [2]
  Annotated PKA activity: no
[1]
  ABL1 SDR pSDR50: 4.80
[1]; [5]
  SDR Ave Max Response: 63.43
[1]; [6]
  pEC50: 4.75
PKA-N-HiBiT; [4]
  SDR Ave Max Response: 6.01

## S=C(NCc1ccc2c(c1)OCO2)N1CCN(c2ncnc3c2oc2ccccc23)CC1 [Amuvatinib]
PKA; [2]
  Annotated PKA activity: no
[1]; [3]
  SDR Ave Max Response: 8.96
PKA-N-HiBiT; [4]
  SDR Ave Max Response: -0.36

## Cc1cccc(/C=N/Nc2cc(N3CCOCC3)nc(OCCc3ccccn3)n2)c1 [Apilimod]
PKA; [2]
  Annotated PKA activity: no
[1]; [3]
  SDR Ave Max Response: 7.50
PKA-N-HiBiT; [4]
  SDR Ave Max Response: -3.80

## CNC(=O)c1ccccc1Sc1ccc2c(/C=C/c3ccccn3)n[nH]c2c1 [Axitinib]
PKA; [2]
  Annotated PKA activity: no
PKA-N-HiBiT; [4]
  SDR Ave Max Response: -3.36

## CC(C)CCN1c2nc(Nc3cc(F)c(O)c(F)c3)ncc2N(C)C(=O)C1C (stereo not shown) [BI-D1870]
PKA; [2]
  Annotated PKA activity: no
[1]
  ABL1 SDR pSDR50: 5.36
[1]; [5]
  SDR Ave Max Response: -47.47
[1]; [6]
  pEC50: 5.33
PKA-N-HiBiT; [4]
  SDR Ave Max Response: -9.75

## C[C@@H]1CCNC(=O)c2cc3ccc(C(=O)Nc4nc5ccccc5n4CCCN(C)C)cc3n21 [BIX-02565]
PKA; [2]
  Annotated PKA activity: no
[1]; [3]
  SDR Ave Max Response: 21.22
PKA-N-HiBiT; [4]
  SDR Ave Max Response: 10.58

## Cc1ccccc1-n1c([C@H](C)Nc2nc(N)nc3[nH]cnc23)nc2cccc(C)c2c1=O [CAL-130 Hydrochloride]
PKA; [2]
  Annotated PKA activity: no
[1]; ABL1-N-HiBiT qHTS, average
  SDR Ave pSDR50: 5.40
[1]; [3]
  SDR Ave Max Response: -18.17
[1]; [7]
  pEC50: 5.39
PKA-N-HiBiT; [4]
  SDR Ave Max Response: 2.85

## CCN1C(=O)CNc2ncc(-c3ccc(-c4nc[nH]n4)nc3C)nc21 [CC-115]
PKA; [2]
  Annotated PKA activity: no
[1]; [5]
  SDR Ave Max Response: 31.14
PKA-N-HiBiT; [4]
  SDR Ave Max Response: -2.34

## Cc1nc2ccc(-n3ncc(C(=O)c4cc5ccccc5[nH]4)c3N)cc2[nH]1 [CH-5183284]
PKA; [2]
  Annotated PKA activity: no
[1]
  ABL1 SDR pSDR50: 5.61
[1]; [3]
  SDR Ave Max Response: 37.79
[1]; [7]
  pEC50: 5.60
PKA-N-HiBiT; [4]
  SDR Ave Max Response: 4.01

## Nc1nc(NCCNc2ncc(-n3ccnc3)c(-c3ccc(Cl)cc3Cl)n2)ccc1[N+](=O)[O-] [CT-98014]
PKA
  Annotated PKA activity: no
[1]
  ABL1 SDR pSDR50: 4.54
[1]; [3]
  SDR Ave Max Response: -28.48
[1]; [7]
  pEC50: 4.47
PKA-N-HiBiT
  pEC50: 4.93
  SDR Ave Max Response: -28.99
PKA-N-HiBiT; read-out: PKA SDR Ave SDR50
  pEC50: 4.89

## CO[C@@H](C(=O)N1Cc2n[nH]c(NC(=O)c3ccc(N4CCN(C)CC4)cc3)c2C1)c1ccccc1 [Danusertib]
PKA; [2]
  Annotated PKA activity: no
PKA-N-HiBiT; [4]
  SDR Ave Max Response: 4.52

## Cc1cc(F)ccc1-c1nc(NC(CO)CO)nc2c1ccc(=O)n2-c1c(F)cccc1F [Dilmapimod]
PKA; [2]
  Annotated PKA activity: no
[1]; [5]
  SDR Ave Max Response: -3.68
PKA-N-HiBiT; [4]
  SDR Ave Max Response: 3.69

## Cc1ncc(NC(=O)c2ccc(CN3CCN(C)CC3)c(C(F)(F)F)c2)cc1Nc1nccc(-c2cccnc2)n1 [Flumatinib]
PKA; [2]
  Annotated PKA activity: no
[1]; [3]
  SDR Ave Max Response: 74.04
PKA-N-HiBiT; [4]
  SDR Ave Max Response: 7.84

## CC1(C)OCCn2c1nc1c(N3CCOCC3)nc(-c3cnc(N)nc3)nc12 [GDC-0084]
PKA; [2]
  Annotated PKA activity: no
[1]
  ABL1 SDR pSDR50: 5.16
[1]; [5]
  SDR Ave Max Response: 58.32
[1]; [6]
  pEC50: 5.15
PKA-N-HiBiT; [4]
  SDR Ave Max Response: 3.97

## Cn1ncc(NC(=O)c2nc(-c3c(F)cccc3F)sc2N)c1N1CC[C@@H](N)[C@H](F)CC1 [GDC-0339]
PKA; [2]
  Annotated PKA activity: no
[1]; [5]
  SDR Ave Max Response: 12.78
PKA-N-HiBiT; [4]
  SDR Ave Max Response: 10.49

## COc1ccc(-n2c(C)c([N+](=O)[O-])c3ccc(O)cc32)cc1 [ID-8]
PKA; [2]
  Annotated PKA activity: no
[1]; [3]
  SDR Ave Max Response: 10.66
PKA-N-HiBiT; [4]
  SDR Ave Max Response: 2.68

## Cc1[nH]c2ccccc2c1C1=C(NCCc2ccc(F)cc2)C(=O)N(C)C1=O [IM-12]
PKA; [2]
  Annotated PKA activity: no
[1]; [3]
  SDR Ave Max Response: -12.41
PKA-N-HiBiT
  pEC50: 4.49
PKA-N-HiBiT; [4]
  SDR Ave Max Response: -30.07
PKA-N-HiBiT; [8]
  pEC50: 4.38

## C/N=c1\ncc2cc(-c3cc(NC(=O)NCCC(C)(C)C)c(F)cc3C)c(C)nc2[nH]1 [LY-3009120]
PKA; [2]
  Annotated PKA activity: no
PKA-N-HiBiT; [4]
  SDR Ave Max Response: 2.67

## Nc1ncccc1-c1nc2ccc(-c3ccccc3)nc2n1-c1ccc(C2(N)CCC2)cc1 [Miransertib]
PKA; [2]
  Annotated PKA activity: no

## Cc1cc(NC(=O)c2ccc(C)c(Nc3nccc(-c4cccnc4)n3)c2)cc(-n2cnc(C)c2)c1 [NSC762948]
PKA; [2]
  Annotated PKA activity: no
PKA-N-HiBiT; [4]
  SDR Ave Max Response: -6.66

## Cc1cn(-c2cccc(NC(=O)c3ccc(C)c(Nc4nccc(-c5cccnc5)n4)c3)c2)cn1 [NSC762949]
PKA; [2]
  Annotated PKA activity: no
PKA-N-HiBiT; [4]
  SDR Ave Max Response: -2.45

## Cc1cn(-c2cc(F)cc(NC(=O)c3ccc(C)c(Nc4nccc(-c5cccnc5)n4)c3)c2)cn1 [NSC762950]
PKA; [2]
  Annotated PKA activity: no
PKA-N-HiBiT; [4]
  SDR Ave Max Response: -15.93

## Cc1cc(Nc2ncc3cc(-c4c(Cl)cccc4Cl)c(=O)n(C)c3n2)ccc1F [PD 180970]
PKA; [2]
  Annotated PKA activity: no
PKA-N-HiBiT; [4]
  SDR Ave Max Response: -17.64

## CSc1cccc(Nc2ncc3cc(-c4c(Cl)cccc4Cl)c(=O)n(C)c3n2)c1 [PD-173955]
PKA; [2]
  Annotated PKA activity: no

## COc1cc2c(cc1OC)-c1[nH]nc(Nc3cccc(F)c3)c1C2 [PDGF RTK inhibitor IV]
PKA; [2]
  Annotated PKA activity: no
PKA-N-HiBiT; [4]
  SDR Ave Max Response: 5.85

## CC(C)n1nc(-c2cc3cc(O)ccc3[nH]2)c2c(N)ncnc21 [PP 242]
PKA
  Annotated PKA activity: yes

## CN1CCN(CCOc2cc(OC3CCOCC3)c3c(Nc4c(Cl)ccc5c4OCO5)ncnc3c2)CC1 [Saracatinib]
PKA; [2]
  Annotated PKA activity: no
PKA-N-HiBiT; [4]
  SDR Ave Max Response: 3.81

## Cc1cc(C)c(/C=C2\C(=O)Nc3ccccc32)[nH]1 [Semaxanib]
PKA; [2]
  Annotated PKA activity: no

## Cc1cc(-c2cc(O)ccc2Cl)cc2nnc(Nc3ccc(OCCN4CCCC4)cc3)nc12 [TG 100572 HCl]
PKA; [2]
  Annotated PKA activity: no
PKA-N-HiBiT; [4]
  SDR Ave Max Response: -13.83

## CN[C@@H]1C[C@H]2O[C@@](C)([C@@H]1OC)n1c3ccccc3c3c4c(c5c6ccccc6n2c5c31)C(=O)NC4 [staurosporine, reference compound]
PKA; [2]
  Annotated PKA activity: yes

## PHA-665752
PKA; [2]
  Annotated PKA activity: no

## TAE-684
PKA; [2]
  Annotated PKA activity: no
PKA-N-HiBiT; [4]
  SDR Ave Max Response: 28.42
PKA-N-HiBiT; [8]
  pEC50: 5.02

## Tozasertib
PKA; [2]
  Annotated PKA activity: no
PKA-N-HiBiT
  SDR Ave Max Response: -1.35
